For assay [1], the target named is T1, recombinant ROCK2 (amino acids 1-552) (Homo sapiens, UniProt O75116).
T1 construct: ROCK2 (amino acids 1-552) proteins were purchased from ThermoFisher Scientific; purchased ThermoFisher Scientific
As to the kind of experiment: Z'-lyte kinase assay, ROCK2. As to conditions: for inhibition at 3 µM / inhibition at 1 µM / inhibition at 0.5 µM: read-out: ROCK2 % inh. Format: biochemical. The protocol: (§1) Determination of compounds ROCK inhibitory activity in vitro (Z'lyte assay): recombinant ROCK1 (amino acids 1-535) and ROCK2 (amino acids 1-552) proteins were purchased from ThermoFisher Scientific. Compounds activities were measured by Z′-lyte kinase kit (ThermoFisher Scientific) and IC50s were calculated.
(§2) Table 2, below, provides in vitro and cellular inhibition of ROCKs by compounds of the invention. Compounds activities were measured by Z′-lyte kinase kit (ThermoFisher Scientific). […] IC50s were calculated using the GraphPad Prism software with kinase activities data that were collected from points 9 serial dilution of compounds treatment. The ROCK inhibition in A7R5 cells and NIH3T3 (Acta2-Luc) cells was performed as described above.

In assay [2] the target is T2, recombinant ROCK1 (amino acids 1-535) (Homo sapiens, UniProt Q13464).
T2 construct: recombinant ROCK1 (amino acids 1-535) and ROCK2; purchased ThermoFisher Scientific
T2 sequence (Q13464 1-535): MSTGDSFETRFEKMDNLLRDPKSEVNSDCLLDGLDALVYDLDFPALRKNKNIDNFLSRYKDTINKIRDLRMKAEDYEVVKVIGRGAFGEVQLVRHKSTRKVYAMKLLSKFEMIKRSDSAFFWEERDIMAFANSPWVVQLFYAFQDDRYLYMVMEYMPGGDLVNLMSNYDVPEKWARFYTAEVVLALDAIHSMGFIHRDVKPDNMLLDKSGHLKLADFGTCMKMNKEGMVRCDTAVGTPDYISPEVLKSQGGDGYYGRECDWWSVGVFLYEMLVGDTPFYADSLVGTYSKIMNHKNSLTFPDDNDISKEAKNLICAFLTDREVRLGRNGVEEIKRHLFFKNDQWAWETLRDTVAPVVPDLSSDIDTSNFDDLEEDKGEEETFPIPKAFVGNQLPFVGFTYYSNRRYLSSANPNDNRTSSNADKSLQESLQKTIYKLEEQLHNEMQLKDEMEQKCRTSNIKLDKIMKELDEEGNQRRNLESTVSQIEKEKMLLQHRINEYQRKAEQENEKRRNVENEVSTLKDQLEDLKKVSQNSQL
As to the kind of experiment: Z'-lyte kinase assay, ROCK1. The assay is classed as biochemical. As to conditions: for inhibition at 3 µM / inhibition at 0.5 µM: read-out: ROCK1 % inh. The protocol: as §1, §2

In assay [3] the test system is phospho-myosin light chains (ppMlc, Thr18/Ser19) in A7R5 cells. As to the kind of experiment: A7R5 in-cell ELISA, phospho-myosin light chain. Format: cell-based, rat. As to conditions: for IC50 / inhibition at 1 µM / inhibition at 10 µM: Rattus norvegicus, A7R5 cells; for IC50: 1.5 h, 90 min, read-out: pMLC IC50 A7R5; for inhibition at 1 µM / inhibition at 10 µM: read-out: pMLC % inh A7R5; for cellular ROCK inhibition compared with Comparative Example 2: phosphorylation of the ROCK target pMLC in A7R5 cells. The protocol: Determination of compounds ROCK inhibitory activity in A7R5 cells: rat aortic smooth muscle cell line A7R5 cells were maintained and treated in DMEM medium with 10% of fetal bovine serum. Cells were seeded with density of 5,000 cells/well in 96-well plates for 24 hours and subsequently treated 90 min with testing compounds. Cells were then fixed and processed according to the In-Cell ELISA Colorimetric Detection Kit manual (Thermo Scientific). Cellular phospho-myosin light chains (ppMlc, Thr18/Ser19) levels were determined after treatments of DMSO control or test compounds using the In-Cell ELISA kit. The percent inhibition rate was calculated by applying the data obtained with 1 μM (or 10 μM) compound treatment to the formula, [1-(compound/DMSO)]×100%. ppMlc data obtained with 9 points 2-fold serial dilution of compounds were applied to the nonlinear regression curve fit function of the GraphPad Prism software to calculate the In cell IC50s.
A7R5 cells were treated with 9 points 2 fold serial dilution of compounds and ppMlc (T18/S19) levels were determined in order to calculate cellular IC50s of the compounds.
Two steps of measurements were adopted for pMLC/A7R5 IC50. Percent inhibition rates were calculated with a single dose (1 μM or 10 μM) compounds treatment to screen for active compounds and then cellular IC50s were measured only in compounds that have over 50% of inhibition rates.

Some results are limits rather than exact numbers.

T1 sequence (O75116 1-552): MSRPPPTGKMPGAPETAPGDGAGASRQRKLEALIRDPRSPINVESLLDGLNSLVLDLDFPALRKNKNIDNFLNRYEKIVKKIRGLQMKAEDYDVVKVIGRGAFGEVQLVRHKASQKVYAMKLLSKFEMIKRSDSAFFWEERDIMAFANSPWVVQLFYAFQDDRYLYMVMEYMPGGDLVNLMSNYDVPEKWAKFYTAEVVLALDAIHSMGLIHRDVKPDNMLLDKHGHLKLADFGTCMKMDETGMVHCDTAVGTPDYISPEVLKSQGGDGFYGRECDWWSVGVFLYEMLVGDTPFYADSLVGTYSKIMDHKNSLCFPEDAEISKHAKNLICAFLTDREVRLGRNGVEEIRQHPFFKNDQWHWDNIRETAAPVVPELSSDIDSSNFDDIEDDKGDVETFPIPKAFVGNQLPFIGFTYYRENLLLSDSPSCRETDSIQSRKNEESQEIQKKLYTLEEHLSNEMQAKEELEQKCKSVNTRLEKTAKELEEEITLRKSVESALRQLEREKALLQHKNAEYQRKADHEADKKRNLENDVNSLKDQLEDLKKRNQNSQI

As usually defined, the IC50 is the concentration needed to halve the response being measured. As for `NC(C(=O)Nc1ccc2[nH]ncc2c1)c1ccc(Cl)cc1` (centres unmarked) [Comp2, reference compound], the inhibition at 3 µM turned out to be 97.5% in assay [1] and 92.2% in assay [2]. In addition, in assay [3], the IC50 turned out to be 4410 nM.

With `NC(C(=O)Nc1ccc2[nH]ncc2c1)c1ccccc1` (centres unmarked) [Comp3, reference compound], the inhibition at 3 µM in assay [1] was 97.4%; in assay [2], 91.5%. In assay [3], the IC50 came out at 10900 nM.

Take `COc1ccc(C(N)C(=O)Nc2ccc3[nH]ncc3c2)cc1` (centres unmarked) [Comp4, reference compound]: in assay [1], the inhibition at 1 µM is 96.5%. In addition, in assay [2], the inhibition at 3 µM came out at 95.8%. For the same compound, the IC50 in assay [3] is 6160 nM.

`Cc1ccc(C(N)C(=O)Nc2ccc3[nH]ncc3c2)cc1` (centres unmarked) [Comp5, reference compound]: in assay [1], the IC50 was found to be 33 nM and the inhibition at 1 µM came to 96.2%. In addition, in assay [2], the IC50 worked out at 1310 nM and the inhibition at 3 µM was 99%.

In the case of `NC(C(=O)Nc1ccc2[nH]ncc2c1)c1cccc(F)c1` (centres unmarked) [Comp6, reference compound], the IC50 in assay [1] stood at 41.8 nM; in assay [2] it was 41.3 nM; in assay [3] it was 6990 nM. Besides, the inhibition at 3 µM in assay [1] was determined as 98.8%; in assay [2], 99%.

Consider `NC(C(=O)Nc1ccc2[nH]ncc2c1)c1ccccc1F` (centres unmarked) [Comp7, reference compound], for which the IC50 in assay [1] was 303 nM; in assay [2], 166 nM; in assay [3], 18400 nM. In addition, the inhibition at 3 µM in assay [1] and in assay [2] was 100% in each case.

Regarding `O=C(Nc1ccc2[nH]ncc2c1)C1CNc2ccccc2C1` (centres unmarked) [Example 3, N-(1H-indazol-5-yl)-1,2,3,4-tetrahydroquinoline-3-carboxamide], the inhibition at 3 µM in assay [1] and in assay [2] was 0% throughout. Moreover, in assay [3], the inhibition at 1 µM was 25%.

On to `O=C(Nc1ccc2[nH]ncc2c1)C1Cc2ccccc2CN1` (centres unmarked) [Example 4, N-(1H-indazol-5-yl)-1,2,3,4-tetrahydroisoquinoline-3-carboxamide], for which the IC50 in assay [1] and in assay [2] was above 1000 nM throughout. Also, the inhibition at 10 µM in assay [3] is 18%.

Turning to `O=C(Nc1ccc2[nH]ncc2c1)C1NCCc2ccccc21` (centres unmarked) [Example 5, N-(1H-indazol-5-yl)-1,2,3,4-tetrahydroisoquinoline-1-carboxamide], the IC50 in assay [1] turned out to be 77 nM; in assay [2] it was 38 nM; in assay [3], 35800 nM.

For `O=C(Nc1ccc2[nH]ncc2c1)C1NCc2ccccc21` (centres unmarked) [Example 6, N-(1H-indazol-5-yl)isoindoline-1-carboxamide], the IC50 in assay [1] was above 1000 nM; in assay [2] it was 421 nM. For the same compound, the inhibition at 10 µM in assay [3] was found to be 1%.

With `CNC(C(=O)N(CCN(C)C)c1ccc2[nH]ncc2c1)c1cccc(OC)c1` (centres unmarked) [Example 7, N-(2-(dimethylamino)ethyl)-N-(1H-indazol-5-yl)-2-(3-methoxyphenyl)-2-(methylamino)acetamide], in assay [1], the IC50 is 1630 nM and the inhibition at 1 µM amounted to 11%. Further, the inhibition at 0.5 µM in assay [2] worked out at 16%. Besides, the inhibition at 10 µM in assay [3] amounted to 2%.

As to `O=C(Nc1ccc2[nH]ncc2c1)C1CNCc2ccccc21` (centres unmarked) [Example 8, N-(1H-indazol-5-yl)-1,2,3,4-tetrahydroisoquinoline-4-carboxamide], the inhibition at 1 µM in assay [1] stood at 76.7%. Also, in assay [3], the IC50 amounted to 2620 nM.

With `CC1NC(C(=O)Nc2ccc3[nH]ncc3c2)c2ccccc21` (centres unmarked) [Example 9, N-(1H-indazol-5-yl)-3-methylisoindoline-1-carboxamide], the inhibition at 1 µM in assay [3] is 4%.

Consider `O=C(Nc1ccc2[nH]ncc2c1)C1CCCN1` (centres unmarked) [Example 10, N-(1H-indazol-5-yl)pyrrolidine-2-carboxamide], for which the inhibition at 1 µM in assay [3] came to 1%.

As for `O=C(Nc1ccc2[nH]ncc2c1)C1CCNC1` (centres unmarked) [Example 11, N-(1H-indazol-5-yl)pyrrolidine-3-carboxamide], the inhibition at 1 µM in assay [3] was determined as 1%.

Regarding `O=C(Nc1ccc2[nH]ncc2c1)[C@@H]1CC[C@H](c2ccccc2)N1` [Example 12, (2S,5R)-N-(1H-indazol-5-yl)-5-phenylpyrrolidine-2-carboxamide], the inhibition at 1 µM in assay [3] is 1%.

Consider `O=C(Nc1ccc2[nH]ncc2c1)C1CCCCN1` (centres unmarked) [Example 13, N-(1H-indazol-5-yl)piperidine-2-carboxamide], for which the inhibition at 1 µM in assay [3] was determined as 11%.

As for `CCNC(C(=O)Nc1ccc2[nH]ncc2c1)c1ccc(Cl)cc1` (centres unmarked) [Example 17, 2-(4-chlorophenyl)-2-(ethylamino)-N-(1H-indazol-5-yl)acetamide], in assay [1], the IC50 came out at 248 nM and the inhibition at 3 µM amounted to 96.3%. Also, in assay [2], the IC50 is below 10 nM and the inhibition at 3 µM stood at 93.3%. In addition, in assay [3], the IC50 worked out at 556 nM and the “cellular ROCK inhibition compared with Comparative Example 2” value is given as “enhanced”.

As for `CC(C)NC(C(=O)Nc1ccc2[nH]ncc2c1)c1ccc(Cl)cc1` (centres unmarked) [Example 18, 2-(4-chlorophenyl)-N-(1H-indazol-5-yl)-2-(isopropylamino)acetamide], the inhibition at 3 µM in assay [1] came out at 94.1%. Moreover, in assay [2], the inhibition at 3 µM is 89.6%. Further, in assay [3], the IC50 is 2510 nM and the “cellular ROCK inhibition compared with Comparative Example 2” value is recorded as “enhanced”.

As for `CNC(C(=O)Nc1ccc2[nH]ncc2c1)c1ccc(-c2ccccc2F)cc1` (centres unmarked) [Example 33, 2-(2′-fluoro-[1,1′-biphenyl]-4-yl)-N-(1H-indazol-5-yl)-2-(methylamino)acetamide], the inhibition at 1 µM in assay [1] is 66.5%. Also, the inhibition at 10 µM in assay [3] is 48%.

Consider `COc1cccc(C(NCCN(C)C)C(=O)Nc2ccc3[nH]ncc3c2)c1` (centres unmarked) [Example 34, 2-((2-(dimethylamino)ethyl)amino)-N-(1H-indazol-5-yl)-2-(3-methoxyphenyl)acetamide], for which the IC50 in assay [1] amounted to 438 nM. Moreover, the inhibition at 10 µM in assay [3] is 49%.

Regarding `CNC(C(=O)Nc1ccc2[nH]ncc2c1)c1ccccc1OC` (centres unmarked) [Example 35, N-(1H-indazol-5-yl)-2-(2-methoxyphenyl)-2-(methylamino)acetamide], the figures for the inhibition at 1 µM in assay [1] and in assay [3] were 71% and 16%, respectively.

With `CCOc1ccc(C(NC)C(=O)Nc2ccc3[nH]ncc3c2)cc1` (centres unmarked) [Example 43, 2-(4-ethoxyphenyl)-N-(1H-indazol-5-yl)-2-(methylamino)acetamide], in assay [1], the IC50 turned out to be 73 nM and the inhibition at 1 µM was 98%. Also, the inhibition at 10 µM in assay [3] was 4%.

Take `CNC(C(=O)Nc1ccc2[nH]ncc2c1)c1ccc(OC(C)C)cc1` (centres unmarked) [Example 44, N-(1H-indazol-5-yl)-2-(4-isopropoxyphenyl)-2-(methylamino)acetamide]: the IC50 in assay [1] was found to be 455 nM. Moreover, the inhibition at 10 µM in assay [3] was 42%.

Regarding `CNC(C(=O)Nc1ccc2[nH]ncc2c1)c1ccc(-c2ccc(OC)cc2)cc1` (centres unmarked) [Example 45, N-(1H-indazol-5-yl)-2-(4′-methoxy-[1,1′-biphenyl]-4-yl)-2-(methylamino)acetamide], the inhibition at 1 µM in assay [1] was 22%. Besides, in assay [3], the inhibition at 10 µM was found to be 4%.

Turning to `COCCNC(C(=O)Nc1ccc2[nH]ncc2c1)c1cccc(OC)c1` (centres unmarked) [Example 46, N-(1H-indazol-5-yl)-2-((2-methoxyethyl)amino)-2-(3-methoxyphenyl)acetamide], the inhibition at 1 µM in assay [1] was found to be 67%. Besides, the inhibition at 10 µM in assay [3] was determined as 27%.

In the case of `CNC(C(=O)Nc1ccc2[nH]ncc2c1)c1ccc(F)c(OC)c1` (centres unmarked) [Example 48, 2-(4-fluoro-3-methoxyphenyl)-N-(1H-indazol-5-yl)-2-(methylamino)acetamide], in assay [1], the half-inhibitory concentration (IC50) was 71 nM and the inhibition at 0.5 µM was found to be 76%. Further, the inhibition at 0.5 µM in assay [2] was found to be 87%.

For `CCNC(C(=O)Nc1ccc2[nH]ncc2c1)c1cccc(C)c1` (centres unmarked) [Example 49, 2-(ethylamino)-N-(1H-indazol-5-yl)-2-(m-tolyl)acetamide], in assay [1], the IC50 came out at 87 nM and the inhibition at 0.5 µM was found to be 76%. Further, in assay [2], the inhibition at 0.5 µM worked out at 88%.

`CNC(C(=O)Nc1ccc2[nH]ncc2c1)c1cccc(OC(F)(F)F)c1` (centres unmarked) [Example 50, N-(1H-indazol-5-yl)-2-(methylamino)-2-(3-(trifluoromethoxy)-phenyl)acetamide]: in assay [1], the IC50 was 21 nM and the inhibition at 0.5 µM worked out at 93%. Further, the inhibition at 0.5 µM in assay [2] was 93%.

Source of the values: patent US11926596B2, “Inhibitors of Rho associated coiled-coil containing protein kinase” (KADMON CORPORATION, LLC, priority 2017, dated 2024).
